Test results reported in patent publication US11634366B2, “Plant growth enhancer using carbon dioxide to increase plant yield and method of increasing plant yield” (Innovations for World Nutrition, LLC, priority 2020, dated 2023).

What was measured:
[1] = system: Oryza sativa long grain rice variety LaKast; assay: Example 2 carbon dioxide in air bubbled into root zone of paddy rice: roots and foliage at 24 days; format: in vivo; conditions: for Dry Foliage Weight: total of ten plants; for Dry Root Weight: total of ten plants of one container; for % Difference in Total Nitrogen Uptake: vs air
Method: (§1) Example 2 tests were conducted to test whether carbon dioxide alone delivered to the roots of rice plants improves the rough rice yield and the root growth. For this example Oryza sativa long grain rice variety LaKast™ seed treated with CruiserMaxx® (an insecticide and fungicide) was carefully selected as representative of all rice grown commercially and provides an excellent model for testing commercial rice.
(§2) For the Example 2 tests, carbon dioxide diluted with air in selected amounts was bubbled into the root zone of paddy rice. The rice was planted in 18.9 L (5 gallon) containers which are 30.5 cm (12 inches) in diameter and 35.6 cm (14 inches) deep, and sets of 8 containers all received the same gas mixture. The tests were designed to end after 17 weeks, but some containers were removed earlier to visually check the roots for amount of growth.
(§3) For the Example 2 tests, the following gas mixtures were used: Air • 0.2% carbon dioxide in air • 0.5% carbon dioxide in air • 1.0% carbon dioxide in air • 2.0% carbon dioxide in air • 5.0% carbon dioxide in air • Note: 0.2% is approximately 5 times the amount of carbon dioxide currently found naturally in air
(§4) 18.9 L (5 gallon) containers were prepared by placing an aquatic gas diffuser attached to tubing at the bottom of each container and then filling the container 10.2 cm (4 inches) from the top with sieved top soil. The containers were placed on tables in a greenhouse in groups of eight so that all received approximately the same amount of light. Each group of eight containers was attached to a tank of gas with the gas being supplied through a regulator to a flow meter and then to a set of eight valves with each one controlling the gas mixture to a single container. A total of forty-eight containers were prepared, and twenty-four containers were placed on each table. Starter phosphorus was added to the soil by mixing 1.7 g of triple super phosphate into the top 7.6 cm (3 inches) of soil in each container. Soil was also given addition starter fertilizer by dissolving 150 g of urea (for nitrogen), 132 g of potassium chloride (for potassium), and 1236 g of Epsom salts (magnesium sulfate heptahydrate for magnesium) in 12 liters of water. Each container was then given 200 mL of this solution. Later, zinc was added using zinc sulfate. The containers were flooded to 1.3 cm (0.5 inches) above the surface of the soil using collected rainwater. On May 20, 2016, the rice seed was presoaked for 24 hours and then drained for 24 hours was dropped on the surface of the soil in each container. After the rice was established, the plants were thinned to 10 plants per container. At a later date, the plants were thinned again to six plants per container. The gas mixtures to the containers were started on May 20, 2016 and adjusted to an initial flow meter setting of 42.5 liters/hr. (1.5 ft^3/hr.) with a steady flow of bubbles in each container. The flow rate was turned down to 14.2 liters/hr. (0.5 ft^3/hr.) on Jun. 14, 2016. The gas flow was supplied each weekday from 8:00 am to noon. During the testing, fans in the greenhouse created a constant airflow to prevent carbon dioxide concentration around a particular group of plants.
On May 25, 2016, 10.6 g of zinc sulfate was dissolved in 10 L of water and each container was given 200 mL of this solution. As the plants grew, the flood waters were gradually raised until they reached a depth of three inches above the soil surface. A flood water depth of 5.1 to 7.6 cm (2 to 3 inches) was maintained for the remainder of the test. On Jun. 13, 2016, one front container (containing 10 plants each) for each level of carbon dioxide was withdrawn for measurement and the plants were gently removed and thoroughly cleaned. The plants and roots were then dried in an oven overnight at 80° C. The next day, the roots were trimmed and weighed. Table 6 presents the total root weights and total foliage weights of the ten plants for each container of plants. […]

[2] = system: Oryza sativa long grain rice variety LaKast; assay: Example 2 carbon dioxide in air bubbled into root zone of paddy rice: root weights and rough rice yield at harvest; format: in vivo; conditions: for % Difference (root weight vs Air) / Dry Root Weight: at harvest; for Dry Root Weight: average of two containers; for Rough Rice Yield Weight: dry weight at harvest
Method: as §1, §2, §3, §4
On Jun. 20, 2016, the rice plants of Example 2 were thinned to six plants per container. On Aug. 1, 2016, additional nitrogen and triple super phosphate (TSP) was added to each container at the rate of 0.57 g TSP in all containers, 0.87 g of urea per container being fed normal air, and 2.27 g ammonium bicarbonate (equivalent nitrogen content as 0.87 g of urea) for the rest of the containers. This introduction of nitrogen and phosphates was to ensure no limitation in nitrogen and phosphorus for the plants and therefore ensure the testing validity of introducing carbon dioxide as a gas to the roots of the plants.
The rough rice for the Example 2 tests was harvested on Sep. 19, 2016. The rough rice was separated, and dried for seven days at 40° C. […]

Compound: O=C=O [CO2, carbon dioxide]
- % Difference of Root Weight as Compared to Air ([1]; 0.5% CO2 in air): 0%
- Total Nitrogen Uptake by Foliage ([1]; 0.5% CO2 in air): 0.156 g
- Dry Foliage Weight ([1]; 0.5% CO2 in air): 3.48 g
- Dry Root Weight ([1]; 0.5% CO2 in air): 1.26 g
- % Difference in Total Nitrogen Uptake ([1]; 0.5% CO2 in air): 8.33%
- Total Nitrogen Uptake by Foliage ([1]; 2.0% CO2 in air): 0.151 g
- Dry Foliage Weight ([1]; 2.0% CO2 in air): 3.43 g
- Dry Root Weight ([1]; 2.0% CO2 in air): 2.08 g
- % Difference in Total Nitrogen Uptake ([1]; 2.0% CO2 in air): 4.86%
- weight of the foliage compared with container receiving solely air ([1]; each container receiving elevated carbon dioxide, in words): slightly more
- % Difference (rough rice yield vs Air) ([2]; 0.2% CO2 in air): 2.9%
- % Difference (root weight vs Air) ([2]; 0.2% CO2 in air): +35.8%
- Dry Root Weight ([2]; 0.2% CO2 in air): 62.5 g
- Rough Rice Yield Weight ([2]; 0.2% CO2 in air): 91.5 g
- % Difference (rough rice yield vs Air) ([2]; 0.5% CO2 in air): 6.1%
- % Difference (root weight vs Air) ([2]; 0.5% CO2 in air): +6.4%
- Dry Root Weight ([2]; 0.5% CO2 in air): 49.0 g
- Rough Rice Yield Weight ([2]; 0.5% CO2 in air): 94.3 g
- % Difference (rough rice yield vs Air) ([2]; 1.0% CO2 in air): 11.9%
- % Difference (root weight vs Air) ([2]; 1.0% CO2 in air): +9.6%
- Dry Root Weight ([2]; 1.0% CO2 in air): 50.4 g
- Rough Rice Yield Weight ([2]; 1.0% CO2 in air): 99.5 g
- % Difference (rough rice yield vs Air) ([2]; 2.0% CO2 in air): 11.9%
- % Difference (root weight vs Air) ([2]; 2.0% CO2 in air): +11.1%
- Dry Root Weight ([2]; 2.0% CO2 in air): 51.1 g
- Rough Rice Yield Weight ([2]; 2.0% CO2 in air): 99.5 g
- % Difference (rough rice yield vs Air) ([2]; 5.0% CO2 in air): −3.0%
- % Difference (root weight vs Air) ([2]; 5.0% CO2 in air): +20.7%
- Dry Root Weight ([2]; 5.0% CO2 in air): 55.5 g
- Rough Rice Yield Weight ([2]; 5.0% CO2 in air): 86.2 g
- average root weights at harvest compared with plants receiving just air ([2]; all containers receiving elevated carbon dioxide at roots, in words): higher
- grain yields compared with plants receiving just air ([2]; elevated carbon dioxide, with the exception of 5.0% carbon dioxide mixed with air, in words): higher
